# Tests used:
# [1] = system: PD-1 expression in Jurkat/PD-1 cells; test: PD-1 expression by FACS in PHA-treated Jurkat/PD-1 cells; assay type: cell-based
# Protocol: For analysis of PD-1 expression in PD-1-overexpressing Jurkat T cells (Jurkat/PD-1 cells), Jurkat/PD-1 cells in 24-well plates were treated with 2 μg/mL Phytohaemagglutinin (PHA) and incubated with 5 and 10 μM 7k for 24 h. Cells were collected were stained with APC-conjugated PD-1 Ab at 4 °C for 30 min (BioLegend). After washing with FACS buffer (Biolegend) three times, the cells were analysed using Becton Dickinson LSRFortessa^TM and analyzed with FlowJo software. Isotype-matched monoclonal antibodies were used as controls. The data were analysed using Flowjo analysis software (FlowJo LLC, Ashland, OR, USA).
# [2] = system: AhR, AhRR, and IDO-1 mRNA expression in MC38 and CT26 cells; test: qRT-PCR of AhR downstream genes in kynurenine-stimulated cells; assay type: cell-based; details: 200 μM kynurenine-stimulated MC38 and CT26 cells, 24 h, qPCR
# Protocol: MC38 and CT26 were treated with different concentrations of 7k and 200 μM Kynurenine for 24 h. RNA from treated cells was extracted and cDNA was synthesized using the ReverTraAce™ qPCR RT Kit (TOYOBO, Osaka, Japan), followed by evaluation of AhR, AhRR, and IDO-1 mRNA expression with quantitative real-time PCR. PCR conditions were 95 °C preincubation, maintained for 1 min, and then 1 cycle of 95 °C denaturation for 15 s, 55 °C annealing for 15 s, and 72 °C polymerization for 45 s. A total of 40 cycles were repeated. Advanced Relative Quantification analysis was used to confirm the structure of the expected quantitative real-time PCR product, and the variability of other gene amplification was calibrated by relative comparison with GAPDH expression (Table 1).
# MC38/Luc cells = test: Cytotoxic T lymphocyte (CTL) assay; assay type: cell-based; details: splenocytes of treated tumour-bearing mice, effector:target 10:1, luciferase activity
# Protocol: Splenocytes were collected from tumour-bearing mice and stimulated with a cell activation cocktail (BioLegend) for 6 h. MC38/Luc cells as target cells were seeded in black, clear-bottomed 96-well plates (1 × 10^4 cells). After overnight incubation, splenocytes as effectors were added into wells containing target cells at an effector to target ratio of 10:1. LLC/Luc and CT26/Luc cells were used as negative target cells. Eleven hours later, luciferase activity was measured with an IVIS Lumina III instrument (PerkinElmer, Waltham, MA, USA).
# [3] = system: AhR nuclear translocation in MC38 cells; test: Kynurenine-induced AhR nuclear translocation (Western blot); assay type: cell-based; details: kynurenine-treated MC38 cells, 24 h
# Protocol: Cells were harvested and washed twice in cold PBS. Cytoplasmic and nuclear protein were isolated by NE-PER^TM (Thermo Fisher Scientific, Waltham, MA, USA). The procedure was completed according to the kit instructions.
# For the extraction of total protein, cells were treated with 7k for 24 h in a CO2 incubator at 37 °C and washed twice with phosphate-buffered saline (PBS). Cell pellets were lysed using radioimmunoprecipitation assay (RIPA) buffer (Thermo Fisher Scientific) containing a protease and phosphatase inhibitor cocktail kit (Thermo Fisher Scientific). The lysed cells were briefly vortexed at intervals and subsequently centrifuged at 13,000× g at 4 °C. The protein sample was quantified with the bicinchoninic acid (BCA) protein assay kit (Thermo Fisher Scientific).
# Equal amounts of proteins were loaded onto 10% sodium dodecyl sulfate polyacrylamide gel electrophoresis and transferred onto PVDF membranes (Millipore, Billerica, MA, USA). The membrane was blocked with 5% skim milk in Tris-buffered saline (TBS) containing Tween-20 (TBS-T) for an hour and probed with the respective primary antibodies in 5% BSA overnight at 4 °C. Following incubation, the membrane was probed with horseradish peroxidase (HRP)-conjugated secondary antibodies for an hour at room temperature. […]
# [4] = Pharmacokinetic study in mouse; assay type: in vivo, ICR mice; details: male, ICR, plasma
# Protocol: To estimate the pharmacokinetic parameters in animals, the drug was administered via intravenous (I.V., 5 mg/kg) and oral (P.O., 10 mg/kg) routes in seven-week-old male ICR mice (Orient Bio Inc., Seongnam, Korea). Blood samples were collected at 0.083 (for I.V.), 0.5, 1, 2, 4, 8, and 24 h after drug administrations and then immediately centrifuged at 10,000× g for 3 min. The plasma concentrations of the drug were determined via LC-MS/MS. The plasma concentration–time profiles and pharmacokinetic parameters were estimated using the non-compartmental method with the nonlinear least squares regression program WinNonlin 5.3 (Pharsight, Mountain View, CA, USA).
# [5] = system: PD-L1 expression in MC38 and CT26 cancer cells; test: PD-L1 expression by FACS in IFNγ-treated colorectal cancer cells; assay type: cell-based
# Protocol: For analysis of PD-L1 expression in colorectal cancer cells, MC38 in 24-well plates were treated with IFNγ (10 ng/mL) for 24 h and incubated with 5 and 10 μM for 24 h. Cells were collected and stained with APC-conjugated PD-L1 Ab at 4 °C for 30 min (BioLegend). After washing with FACS buffer (Biolegend) three times, the cells were analysed using Becton Dickinson LSRFortessa^TM and analyzed with FlowJo software. Isotype-matched monoclonal antibodies were used as controls. The data were analysed using Flowjo analysis software (FlowJo LLC, Ashland, OR, USA).
# [6] = system: normal cells (CHO, L929, CCD-18Co); test: Cell viability assay (CCK-8), normal cells; assay type: cell-based; details: 24 h, 7k: CHO, SR-1: CCD-18Co
# Protocol: Chinese hamster ovary CHO cells, mouse fibroblast L929 cells, normal colon CCD18-Co cells, monkey kidney fibroblast COS-7 cells, colorectal cancer cells including HCT-116, RKO, SW480, SW620, CT26, and MC38 cells were purchased from ATCC (American Type Culture Collection). CHO, L929, Cos-7, and all cancer cells were maintained in RPMI 1640 or DMEM supplemented with 10% FBS (Gibco FBS; Thermo Fisher Scientific, Hanover Park, IL, USA) and 1% streptomycin/penicillin. CCD18-Co cells were cultured in high-glucose Dulbecco modified Eagle medium containing 10% FBS and 1% streptomycin/penicillin. All cells were grown in 5% CO2 at 37 °C. Mycoplasma testing was regularly performed every month using the BioMycoX Mycoplasma PCR Detection Kit (CellSafe, Yongin, Republic of Korea).
# Cell viability was analyzed using a Cell Counting Kit-8 (Dojindo molecular technologies, Rockville, MD, USA). Cells were seeded in 96-well plates and treated with different concentrations of 7k. At the indicated time points, CCK-8 (10 μL/well) reagents were added to the cells, followed by further incubation at 37 °C for 90 min. The absorbance at 450 nm was measured using a plate reader (BioTek instruments, Winooski, VT, USA).
structure (smiles),measurement,setting,value
"CC(C)n1cc2nc(-c3cc(F)cc(F)c3)nc(NCCc3c[nH]c4ccccc34)c2n1 [Compound 7k, N-(2-(1H-indol-3-yl)ethyl)-5-(3,5-difluorophenyl)-2-isopropyl-2H-pyrazolo [4,3-d]pyrimidin-7-amine]",PD-1 expression,[1],reduced PD-1 expression
same,"expression levels of AhR, AhRR, and IDO-1",[2],"reduced the expression levels of AhR, AhRR, and IDO-1"
same,CTL-mediated killing activity against MC38-luc cells,MC38/Luc cells,minimal killing activity
same,AhR expression in the nucleus,[3],decreased AhR expression in the nucleus
same,AUC(0-inf),"[4]; IV, 5 mg/kg",5860 ng·h/mL
same,AUC(0-t),"[4]; IV, 5 mg/kg",5750 ± 740 ng·h/mL
same,clearance,"[4]; IV, 5 mg/kg",14.3 mL/min/kg
same,half-life,"[4]; IV, 5 mg/kg",272 min
same,Vd,"[4]; IV, 5 mg/kg, read-out: Vss (converted)",3.91 L/kg
same,AUC(0-inf),"[4]; PO, 10 mg/kg",8230 ng·h/mL
same,AUC(0-t),"[4]; PO, 10 mg/kg",8160 ± 3670 ng·h/mL
same,Cmax,"[4]; PO, 10 mg/kg",2380 ng/mL
same,Tmax,"[4]; PO, 10 mg/kg",40.2 ± 17.4 min
same,half-life,"[4]; PO, 10 mg/kg",226 min
same,bioavailability,"[4]; PO, 10 mg/kg, read-out: Ft (%) bioavailability (converted)",71%
same,PD-L1 expression,[5],dose-dependent downregulation of PD-L1 expression
same,cell viability of normal cells,[6],few antiproliferative effects

# Reference: PMC12567141, “Design, Synthesis and Biological Evaluation of Pyrazolopyrimidine Derivatives as Aryl Hydrocarbon Receptor Antagonists for Colorectal Cancer Immunotherapy” (Pharmaceutics, 2025)
